From paper PMC7782499, “Progerinin, an optimized progerin-lamin A binding inhibitor, ameliorates premature senescence phenotypes of Hutchinson-Gilford progeria syndrome” (Communications Biology, 2021)
Where “and” joins values, the source holds several entries; their conditions need not be identical. Equal entries are not always repeated.

How the values were obtained:
[1] = target: hERG (human Ether-à-go-go-Related Gene) (Homo sapiens, UniProt Q12809); assay: hERG inhibition; format: in vitro ADME
Sequence of hERG (human Ether-à-go-go-Related Gene) (Q12809 whole entry): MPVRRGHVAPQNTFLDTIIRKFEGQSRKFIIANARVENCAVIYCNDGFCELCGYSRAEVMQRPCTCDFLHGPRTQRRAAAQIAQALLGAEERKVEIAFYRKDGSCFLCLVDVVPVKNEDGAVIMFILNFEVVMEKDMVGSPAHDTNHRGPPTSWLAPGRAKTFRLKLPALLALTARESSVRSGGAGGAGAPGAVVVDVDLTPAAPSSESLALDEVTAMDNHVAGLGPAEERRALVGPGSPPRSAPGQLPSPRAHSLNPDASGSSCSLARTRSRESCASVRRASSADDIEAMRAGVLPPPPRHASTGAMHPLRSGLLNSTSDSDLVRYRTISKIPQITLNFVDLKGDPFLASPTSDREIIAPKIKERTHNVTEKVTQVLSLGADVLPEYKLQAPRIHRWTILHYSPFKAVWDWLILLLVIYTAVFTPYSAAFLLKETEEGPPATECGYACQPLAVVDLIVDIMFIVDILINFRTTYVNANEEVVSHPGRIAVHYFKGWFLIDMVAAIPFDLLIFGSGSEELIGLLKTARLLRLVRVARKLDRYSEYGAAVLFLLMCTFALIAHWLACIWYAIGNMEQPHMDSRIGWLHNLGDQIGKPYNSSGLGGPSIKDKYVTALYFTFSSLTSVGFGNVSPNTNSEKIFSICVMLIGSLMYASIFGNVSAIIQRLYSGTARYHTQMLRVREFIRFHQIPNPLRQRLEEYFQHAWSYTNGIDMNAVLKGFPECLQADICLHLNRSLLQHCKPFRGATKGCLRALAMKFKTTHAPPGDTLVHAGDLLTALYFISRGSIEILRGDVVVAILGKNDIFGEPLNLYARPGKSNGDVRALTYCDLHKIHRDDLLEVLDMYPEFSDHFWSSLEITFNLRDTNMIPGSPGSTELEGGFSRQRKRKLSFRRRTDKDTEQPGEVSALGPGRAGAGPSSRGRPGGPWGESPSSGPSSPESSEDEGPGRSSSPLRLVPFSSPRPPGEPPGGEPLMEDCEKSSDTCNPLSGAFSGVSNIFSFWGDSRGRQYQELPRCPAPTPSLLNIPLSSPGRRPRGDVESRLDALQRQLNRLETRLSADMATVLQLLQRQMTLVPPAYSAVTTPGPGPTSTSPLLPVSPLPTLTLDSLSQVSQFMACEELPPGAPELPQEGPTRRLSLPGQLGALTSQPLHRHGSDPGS
Experimental: At pre-set time-points, blood concentration of JH4 was determined by LC-MS/MS analysis[22],[23]. Other chemicals were also tested using similar protocol. In vitro ADME studies (plasma protein binding, CYP inhibition, microsomal stability, plasma stability, and hERG inhibition) were performed by New Drug Development Center (Daegu, Korea) using standard protocols[24],[25].

progerin = target: T1, progerin (Mus musculus, UniProt P48678, DEL608-657); assay: Western blot of progerin and H3K9me3 in tissue samples (lung, liver, kidney); format: in vivo; details: for H3K9me3 intensity / Progerin intensity: D011-treated LmnaG609G/+ mice
T1 construct: Lamin A/C and progerin amounts in tissue samples including lung, liver, and kidney; from tissue; host or cells: lung, liver and kidney of Lmna G609G/+ mice
T1 sequence (P48678 with tags, fused parts or gaps DEL608-657): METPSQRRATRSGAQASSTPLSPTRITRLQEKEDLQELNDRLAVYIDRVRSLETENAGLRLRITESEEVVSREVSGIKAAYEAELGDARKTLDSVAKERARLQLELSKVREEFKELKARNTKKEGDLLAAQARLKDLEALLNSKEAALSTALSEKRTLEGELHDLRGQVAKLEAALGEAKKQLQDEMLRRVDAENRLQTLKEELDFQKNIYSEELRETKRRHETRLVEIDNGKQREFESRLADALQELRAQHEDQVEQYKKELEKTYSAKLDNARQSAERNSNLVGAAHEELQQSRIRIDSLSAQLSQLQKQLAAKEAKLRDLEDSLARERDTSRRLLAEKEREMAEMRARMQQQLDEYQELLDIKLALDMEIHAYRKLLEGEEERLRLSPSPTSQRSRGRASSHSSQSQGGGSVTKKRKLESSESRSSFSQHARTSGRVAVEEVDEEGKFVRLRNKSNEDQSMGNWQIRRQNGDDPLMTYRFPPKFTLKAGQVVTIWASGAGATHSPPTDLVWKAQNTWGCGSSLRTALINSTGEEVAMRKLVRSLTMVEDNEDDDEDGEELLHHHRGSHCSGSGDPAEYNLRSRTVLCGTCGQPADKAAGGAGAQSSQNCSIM
From the text: Fig. 4 Oral administration of SLC-D011 suppresses premature aging features. A Gross morphology of SLC-D011-treated (D011) mice at 8 weeks old. Body size of treated mouse was apparently larger than that of the untreated control (Con) mouse. B Oral administration of SLC-D011 increases body weights of Lmna^G609G/G609G mice. Compared with untreated control group, body weight of treated mouse was increased by ~35%, *p < 0.05. C Oral administration of SLC-D011 extends the life span of Lmna^G609G/G609G mouse. SLC-D011 in monoolein-based solution was treated by oral gavage (50 mg/kg, daily) from 5 weeks old. […] E Grip test of Lmna^G609G/+ mice at 41-week-old was performed after administration of SLC-D011 for 6 weeks. The test was repeated 10 times for each mouse (n > 4), **p < 0.001. Data are presented as mean ± SD. F Electrocardiographic analysis of Lmna^G609G/+ mice (untreated: n = 4; SLC-D011: n = 4) and Lmna^+/+ mice (n = 3) after treatment with SLC-D011 for 6 weeks (unpaired t test). Heart rate is shown as beats per minute (bpm). G Dental abnormalities in Lmna^G609G/+ mice (untreated: n = 4; SLC-D011: n = 5) and Lmna^+/+ mice (n = 4). […] Lower incisors of Lmna^G609G transgenic mice grow toward the palate because of malocclusion. Oral administration of SLC-D011 for 6 weeks alleviates dental abnormalities. H Anti-aging effects of single treatment of SLC-D011 or lonafarnib were measured in HGPS patients-derived cells (AG11513, AG03199, AG11498, and AG03198, Coriell Cell Repositories). Single treatment of SLC-D011, compared to lonafarnib, reduced the expression of progerin but induced the expression of H3K9me3 and cyclin B1 in HGPS cells more effectively. HGPS patients-derived cells were treated with SLC-D011 (500 nM) or lonafarnib (500 nM) for 3 days. I Scheme of interaction between lamin A and progerin. SLC-D011 interrupts the interaction between lamin A and progerin through direct binding to the C-terminal region of progerin. “Con” and “untreated” mean vehicle (monoolein-based solution)-treated mouse group or vehicle (DMSO)-treated cells. TEXT PRINTED IN THE PICTURE: (C) D011: Kaplan-Meier survival curve in Lmna^G609G/G609G: Ave=25.2; Kaplan-Meier survival curve in Lmna^G609G/G609G: Max=26 DOUBTS OF THE COPYIST ABOUT THIS PICTURE: Panel C: Ave=25.2 / Max=26 are assigned to D011 only because they are printed beside the solid curve. No unit is printed with them; the x axis reads Age (weeks). / Panel C: Ave=16.8 / Max=18 are printed beside the dashed curve of the control (Con). They are left out because Con is not a substance.
Lamin A/C and progerin amounts in tissue samples including lung, liver, and kidney analysis of two Lmna^+/+, four untreated Lmna^G609G/+, and four D011-treated Lmna^G609G/+ mice were evaluated by western blotting. Proteins were extracted with RIPA lysis buffer supplemented with protease inhibitors. Tissues were sonicated and centrifuged at 15,000 rpm for 15 min at 4 °C. Protein concentration was determined by Coomassie-blue staining. Cellular lysates in SDS-containing sample buffer were inactivated by heating at 98 °C for 7 min. Proteins were loaded onto 8% SDS-PAGE gels and transferred to PVDF membranes. These membranes were blocked with 3% skimmed milk in TBS-T buffer for 1 h and incubated with primary antibodies including mouse monoclonal anti-progerin (1:100; sc-81611; Santa Cruz Biotechnology), mouse monoclonal anti-lamin A/C (1:500; MANLAC1; Developmental Studies Hybridoma Bank), and rabbit polyclonal anti-H3K9me3 (1;2000; Ab8898; Abcam) at 4°C overnight. Blots were then incubated with 1:10,000 goat anti-mouse (Pierce, Thermo Fisher Scientific) or 1:10,000 goat anti-rabbit (Pierce, Thermo Fisher Scientific) IgG (HRP conjugated) in 1% skimmed milk and washed with TBS-T buffer. Bands were developed using and Intron ECL detection system and quantified using Image J (National Institute of Health, NIH).
Fig. S10. […]

[2] = Lmna G609G/+ mice, oral 50 mg/kg daily for 8 weeks

SMILES: CC1(C)Oc2cc3oc(=O)ccc3cc2C[C@@H]1OC/C=C/c1ccccc1 [SLC-D011]
- hERG inhibition (in words) [1]: without severe hERG inhibition
- hERG inhibition: % Inhibition ([1]; Conc: 1uM): 14.673±4.74%
- hERG inhibition: % Inhibition ([1]; Conc: 10uM): 66.31±16.77%
- H3K9me3 intensity (progerin; Kidney, Ave): 6.21 AU and 9.731 AU
- Progerin intensity (progerin; Kidney, Ave): 4.42 AU and 7.581 AU
- H3K9me3 intensity (progerin; Kidney, individual replicate): 7.144 AU and 5.202 AU and 6.284 AU and 10.9311 AU and 8.4105 AU and 9.851 AU
- Progerin intensity (progerin; Kidney, individual replicate): 5.843 AU and 4.429 AU and 2.988 AU and 9.2 AU and 12.7266 AU and 0.8173 AU
- H3K9me3 intensity (progerin; Liver, Ave): 4.595 AU and 7.491 AU
- H3K9me3 intensity (progerin; Liver, individual replicate): 4.833 AU and 4.0316 AU and 4.921 AU and 8.228 AU and 7.116 AU and 7.128 AU
- Progerin intensity (progerin; Liver, individual replicate): 1.2695 AU and 1.954 AU and 0.8023 AU and 0.5773 AU and 0.1521 AU and 0.4975 AU
- H3K9me3 level in tissues (progerin; [2]): increase of H3K9me3
- Progerin level in tissues (progerin; [2]): Obvious reduction of progerin
- Progerin intensity (progerin; Lung, Ave): 1.397 AU and 0.9832 AU
- H3K9me3 intensity (progerin; Lung, individual replicate): 2.3231 AU and 2.511 AU and 2.358 AU and 5.884 AU and 5.376 AU and 5.841 AU
- Progerin intensity (progerin; Lung, individual replicate): 2.376 AU and 1.606 AU and 0.2082 AU and 2.142 AU and 0.6098 AU and 0.1984 AU
